According to patent US6423689B1, “Peptidyl calcium channel blockers” (Warner-Lambert Company, priority 1997, dated 2002):
Read-outs that look alike come from different tables or passages of the source.

How the values were obtained:
[1] = target: T1, N-type Ca2+ channels in IMR-32 cells (Homo sapiens, UniProt Q00975); assay: Inhibition of N-type calcium flux in IMR-32 cells (Indo-1 fluorescence, nitrendipine present); type: cell-based; conditions: for IC50: IMR-32 cells, 5 μM nitrendipine, K+ depolarization; for inhibition at 1 µM / inhibition at 10 µM: IMR-32
T1 construct: host or cells: IMR-32 cells, differentiated with dibutyryl cAMP and bromodeoxyuridine
Outline: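 Differentiated IMR-32 cells (7–13 days) were loaded with 5 μM Indo-1 AM, preincubated with compound for 10 min at 30° C, and depolarized with KCl/CaCl2 stimulation solution, with 5 μM nitrendipine blocking L-channels. Peak-minus-basal 400/490 nm emission ratio was plotted against drug concentration, and IC50 came from four-parameter logistic fits.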

DBA/2 mice = assay: animal or person; type: in vivo; conditions: for responders at 30 mg/kg: Mus musculus, iv, read-out: Number of Mice Protected from Tonic Convulsions
Method: Audiogenic Seizure Model in DBA/2 Mice
In Vivo Biological Protocol
A compound of the present invention was dissolved in water using 10% (weight/volume) Emulphor (GAF Cop., Wayne N.J. surfactant. Substances were administered by intravenous injection the retro-orbital venous sinus. […] All the male mice, 3-4 weeks old were obtained from Jackson Laboratories Bar Harbour, Me. Immediately before anticonvulsant testing, mice were placed upon a wire mesh, 4 inches square suspended from a steel rod. The square was slowly inverted through 180 degree and mice observed for 30 seconds. Any mouse falling from the wire mesh was scored as ataxia.
Mice were placed into an enclosed acrylic plastic chamber (21 cm in height, approximately 30 cm diameter) with a high-frequency speaker (4 cm diameter) in the center of the top lid. An audio signal generator (Protek model B-810) was used to produce a continuous sinusoidal tone that was swept linearly in frequency between 8 kHz and 16 kHz once each 10 msec. The average sound pressure level (SPL) during stimulation was approximately 100 dB at the floor of the chamber. Mice were placed within the chamber and allowed to acclimatize for 1 minute. DBA/2 mice in the vehicle-treated group responded to the sound stimulus (applied until tonic extension occurred, or for a maximum of 60 sec) with a characteristic seizure sequence consisting of wild running followed by clonic seizures, and later by tonic extension, and finally by respiratory arrest and death in 80% or more of the mice. In vehicle-treated mice, the entire sequence of seizures to respiratory arrest lasts approximately 15-20 seconds.
The incidence of all the seizure phases in the drug-treated and vehicle-treated mice was recorded, and the occurrence of tonic seizures were used for calculating anticonvulsant ED50 values by probit analysis. Mice were used only once for testing at each time and dose point.

[2] = system: K+ channels in superior cervical ganglion (SCG) neurons; assay: Whole-cell voltage clamp, K+ current in SCG neurons; type: cell-based, rat; conditions: 10 μM
Outline: (§1)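 Acutely dissociated (trypsin) SCG neurons under whole-cell voltage clamp, external NaCl/KCl/HEPES buffer pH 7.4, K-gluconate/KCl pipette. From holding potential −65 to −55 mV, 35 msec steps every 10 sec to 0 mV (peak Na+ current) or +50 mV (sustained K+ current); compounds perfused locally to steady-state block, reported as percent inhibition of control.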

[3] = system: Na+ channels in superior cervical ganglion (SCG) neurons; assay: Whole-cell voltage clamp, Na+ current in SCG neurons; type: cell-based, rat; conditions: 10 μM
Outline: as §1

[4] = target: T2, L-type Ca2+ channels in A10 cells (Rattus norvegicus, UniProt P22002); assay: Inhibition of L-type calcium flux in A10 cells (FLIPR); type: cell-based
T2 construct: which endogenously expresses L-type calcium channels; host or cells: A10 rat aortic smooth muscle cells
Method: Measurement of L-type Ca^2+ Channel Blocking Potencies of Compounds in A10 cells
Calcium flux through voltage-sensitive calcium channels was assessed by time-resolved monitoring of the fluorescence of pre-loaded calcium-sensitive dyes using FLIPR, a fluorescent image plate reader (Molecular Devices Co.). The A10 smooth muscle cell line derived from embryonic thoracic aorta of the DBIX rat (ATCC, CRL-1476) which endogenously expresses L-type calcium channels. The growth media for A10 cells was Ham's F12/DME high glucose (Irvine Scientific, 9052), supplemented with 20% fetal bovine serum (HyClone Labs, A-1115-L), and 1% each of L-glutamine and antibiotic-antimycotic (same source as above).
Cells were grown to confluency and replated on black-sided 96-well plates (Costar, 3603) for use in FLIPR. Two days after replating, growth media was removed and cells were loaded at 37° C. with 100 μL media containing 1 μM Oregon Green 488 Bapta-1 dye (Molecular Probes, O-6807) for 1 to 3 hours. The dye-containing media was then washed away with buffer (composition in mM: 1.25 CaCl2, 1.2 MgSO4, 11 glucose, 10 HEPES, 3.0 KCl, 137.0 NaCl, pH 7.4 with Tris base) in a Denley Cellwash (Labsystems, CW018B). The residual buffer volume was adjusted to 50 μL. A 5 minute drug-pre-incubation period at 35° C. was initiated when 50 μL of drug-containing buffer was pipetted into the cell plate with the 96-well pipettor integrated in the FLIPR apparatus. Fluorescent counts were monitored at 20 second intervals for 360 seconds, beginning 60 seconds prior to the delivery of drug-containing buffer. Following drug addition, 100 μL aliquots of a high K^+, depolarizing stimulus (composition in mM: 1.25 CaCl2, 1.2 MgSO4, 11 glucose, 10 HEPES, 140.0 KCl, pH 7.4 with Tris base) were added to each well and fluorescence was monitored at 1 second intervals for 120 seconds, beginning 10 seconds prior to the stimulus addition. CCD camera exposure time was 0.4 seconds, laser excitation was at 488 nm with a power of 0.2-0.5W, and a 510 to 560 nm bandpass interference filter preceded the camera.
Data was analyzed as a summation of fluorescent counts above basal during the stimulation period (an approximation of area under the curve), after normalizing the data with a spatial uniformity correction (for variations in laser illumination and cell density) and a negative control correction (zero calcium increase defined as the fluorescence reading in the presence of saturating pharmacologic block of the respective calcium channel). Drug effects were expressed as percent inhibition of fluorescence from an average of 8 K^+-stimulated wells which were pre-treated in the drug incubation period with buffer only.
In the A10 cells, the pharmacologic agent used to define zero calcium influx was nitrendipine (RBI, N-144), at a final concentration of 1.0×10^−6 M.

[5] = 30 mg/Kg iv, 15 min post treatment
[6] = 30 mg/Kg iv, 45 min post treatment

T2 sequence (P22002 whole entry): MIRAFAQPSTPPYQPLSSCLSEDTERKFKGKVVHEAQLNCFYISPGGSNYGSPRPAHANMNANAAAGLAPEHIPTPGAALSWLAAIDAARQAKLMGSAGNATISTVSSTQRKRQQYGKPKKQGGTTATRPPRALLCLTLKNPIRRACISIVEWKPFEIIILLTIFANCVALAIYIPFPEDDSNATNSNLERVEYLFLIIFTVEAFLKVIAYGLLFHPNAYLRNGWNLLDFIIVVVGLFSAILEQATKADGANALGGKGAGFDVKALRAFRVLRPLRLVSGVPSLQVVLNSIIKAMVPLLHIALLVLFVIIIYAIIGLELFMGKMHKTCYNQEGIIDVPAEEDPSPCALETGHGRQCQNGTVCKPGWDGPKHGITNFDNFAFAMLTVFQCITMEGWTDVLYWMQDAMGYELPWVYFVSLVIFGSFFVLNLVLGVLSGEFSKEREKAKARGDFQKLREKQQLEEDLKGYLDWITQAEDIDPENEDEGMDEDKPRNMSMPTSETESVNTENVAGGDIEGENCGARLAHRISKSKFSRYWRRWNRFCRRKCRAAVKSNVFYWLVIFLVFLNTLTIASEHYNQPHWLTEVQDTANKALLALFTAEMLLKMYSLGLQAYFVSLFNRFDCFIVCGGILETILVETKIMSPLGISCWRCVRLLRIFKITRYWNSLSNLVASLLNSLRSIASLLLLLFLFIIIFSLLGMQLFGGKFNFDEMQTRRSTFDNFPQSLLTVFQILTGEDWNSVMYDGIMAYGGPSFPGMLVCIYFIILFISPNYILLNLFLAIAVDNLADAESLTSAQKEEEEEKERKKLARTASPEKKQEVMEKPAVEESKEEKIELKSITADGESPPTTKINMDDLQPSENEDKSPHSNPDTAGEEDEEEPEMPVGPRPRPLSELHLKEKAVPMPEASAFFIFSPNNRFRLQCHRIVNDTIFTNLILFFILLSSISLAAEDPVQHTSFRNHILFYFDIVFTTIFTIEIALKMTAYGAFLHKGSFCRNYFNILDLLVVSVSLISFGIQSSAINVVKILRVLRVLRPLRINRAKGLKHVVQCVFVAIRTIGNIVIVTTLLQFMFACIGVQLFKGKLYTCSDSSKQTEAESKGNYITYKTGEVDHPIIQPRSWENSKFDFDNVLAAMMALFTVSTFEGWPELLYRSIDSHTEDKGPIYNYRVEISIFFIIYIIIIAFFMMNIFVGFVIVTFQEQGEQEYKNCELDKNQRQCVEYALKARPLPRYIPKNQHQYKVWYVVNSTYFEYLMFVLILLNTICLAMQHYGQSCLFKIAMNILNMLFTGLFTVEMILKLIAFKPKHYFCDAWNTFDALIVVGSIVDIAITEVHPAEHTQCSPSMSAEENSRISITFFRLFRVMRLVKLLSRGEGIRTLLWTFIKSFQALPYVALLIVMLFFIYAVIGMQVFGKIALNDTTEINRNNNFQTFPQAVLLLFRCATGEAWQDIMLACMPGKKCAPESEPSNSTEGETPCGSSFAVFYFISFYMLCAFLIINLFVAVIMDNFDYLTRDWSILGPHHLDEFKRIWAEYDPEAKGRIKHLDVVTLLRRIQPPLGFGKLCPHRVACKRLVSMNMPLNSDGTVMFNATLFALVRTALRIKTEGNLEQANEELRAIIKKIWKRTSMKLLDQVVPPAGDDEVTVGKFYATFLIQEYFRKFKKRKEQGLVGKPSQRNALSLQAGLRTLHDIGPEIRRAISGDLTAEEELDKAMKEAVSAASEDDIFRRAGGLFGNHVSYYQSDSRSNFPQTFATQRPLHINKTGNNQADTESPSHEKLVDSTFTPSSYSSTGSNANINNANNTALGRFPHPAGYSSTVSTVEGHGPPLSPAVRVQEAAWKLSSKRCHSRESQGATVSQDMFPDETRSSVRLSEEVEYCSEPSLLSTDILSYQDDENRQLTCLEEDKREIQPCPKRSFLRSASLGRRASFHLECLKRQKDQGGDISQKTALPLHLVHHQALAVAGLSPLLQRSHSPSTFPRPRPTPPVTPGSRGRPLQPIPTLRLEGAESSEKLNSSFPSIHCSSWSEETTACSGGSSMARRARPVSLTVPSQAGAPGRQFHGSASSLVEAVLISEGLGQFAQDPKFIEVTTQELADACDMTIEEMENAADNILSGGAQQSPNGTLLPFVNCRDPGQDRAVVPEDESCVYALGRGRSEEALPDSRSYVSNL
T2 sequence (P54290 25-944 partner limits assumed): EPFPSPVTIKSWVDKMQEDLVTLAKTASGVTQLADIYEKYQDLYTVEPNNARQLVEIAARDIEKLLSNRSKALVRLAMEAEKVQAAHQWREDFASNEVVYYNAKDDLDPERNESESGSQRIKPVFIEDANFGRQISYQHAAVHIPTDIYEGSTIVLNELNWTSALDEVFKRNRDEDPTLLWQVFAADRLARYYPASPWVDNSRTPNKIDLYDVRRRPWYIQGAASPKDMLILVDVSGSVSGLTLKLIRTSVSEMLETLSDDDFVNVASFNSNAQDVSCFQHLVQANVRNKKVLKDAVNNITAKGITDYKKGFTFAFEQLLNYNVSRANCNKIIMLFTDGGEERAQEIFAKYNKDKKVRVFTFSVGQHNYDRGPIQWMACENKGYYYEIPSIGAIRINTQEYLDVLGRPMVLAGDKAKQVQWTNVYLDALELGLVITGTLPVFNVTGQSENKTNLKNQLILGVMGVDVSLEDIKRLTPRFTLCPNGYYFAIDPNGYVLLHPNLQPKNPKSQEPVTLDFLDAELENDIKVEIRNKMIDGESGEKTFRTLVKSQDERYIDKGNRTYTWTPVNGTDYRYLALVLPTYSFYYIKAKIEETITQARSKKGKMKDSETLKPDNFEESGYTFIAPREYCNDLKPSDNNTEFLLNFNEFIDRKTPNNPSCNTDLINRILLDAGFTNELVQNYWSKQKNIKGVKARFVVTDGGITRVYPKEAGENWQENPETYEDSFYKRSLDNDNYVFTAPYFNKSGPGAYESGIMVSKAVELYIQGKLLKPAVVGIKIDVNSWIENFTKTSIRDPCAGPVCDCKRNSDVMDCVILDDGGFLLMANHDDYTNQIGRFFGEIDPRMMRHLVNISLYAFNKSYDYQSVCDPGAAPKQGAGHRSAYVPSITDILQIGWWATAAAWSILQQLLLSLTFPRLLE
T2 sequence (P54290 945-1091 partner limits assumed): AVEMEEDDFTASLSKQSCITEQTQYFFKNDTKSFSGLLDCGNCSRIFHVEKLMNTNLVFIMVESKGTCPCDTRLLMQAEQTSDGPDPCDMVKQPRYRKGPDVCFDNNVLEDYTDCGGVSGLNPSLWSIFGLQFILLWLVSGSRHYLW
T2 sequence (P54287 whole entry partner): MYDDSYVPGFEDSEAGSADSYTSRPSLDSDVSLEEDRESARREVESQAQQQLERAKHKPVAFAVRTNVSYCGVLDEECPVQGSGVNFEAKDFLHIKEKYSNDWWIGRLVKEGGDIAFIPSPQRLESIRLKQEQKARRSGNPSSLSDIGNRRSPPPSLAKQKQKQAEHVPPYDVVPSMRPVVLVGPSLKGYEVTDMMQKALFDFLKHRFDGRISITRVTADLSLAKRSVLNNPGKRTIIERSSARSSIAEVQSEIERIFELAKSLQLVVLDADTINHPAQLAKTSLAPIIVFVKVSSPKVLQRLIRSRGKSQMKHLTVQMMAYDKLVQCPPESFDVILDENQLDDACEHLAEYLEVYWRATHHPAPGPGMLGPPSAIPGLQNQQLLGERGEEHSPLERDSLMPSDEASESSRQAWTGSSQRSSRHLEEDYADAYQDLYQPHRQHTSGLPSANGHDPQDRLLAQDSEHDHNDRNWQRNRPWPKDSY

Row | IC50 [4] | melting point | inhibition at 1 µM [1] | inhibition at 10 µM [1] | Compound | IC50 [1] | further results
1 | – | – | – | – | CC(C)C[C@H](NC(=S)Nc1ccc(C(C)(C)C)cc1)C(=O)N[C@@H](Cc1ccc(OCc2ccccc2)cc1)C(=O)OC(C)(C)C (relative stereo) [Example 44, [S-(R*,R*)]-3-(4-Benzyloxy-phenyl)-2-{2-[3-(4-tert-butyl-phenyl)-thioureido]-4-methyl-pentanoylamino}-propionic acid, tert-butyl ester] | – | Inhibition of Calcium Flux in IMR-32 Cells % Inhibition at 1 μM [1]: 28%; Inhibition of Calcium Flux in IMR-32 Cells % Inhibition at 10 μM [1]: 71%; Number of Mice Protected from Tonic Convulsions (DBA/2 mice; [5]): 0/5
2 | – | – | – | – | CC(C)C[C@H](NC(=O)N1CCCCCC1)C(=O)N[C@@H](Cc1ccc(OCc2ccccc2)cc1)C(=O)NC(CO)CO (relative stereo) [Example 257, [S-(R*,R*)]-Azepane-1-carboxylic acid {1-[2-(4-benzyloxy-phenyl)-1-(2-hydroxy-1-hydroxymethyl-ethylcarbamoyl)-ethylcarbamoyl]-3-methyl-butyl}-amide] | 1400 nM | Inhibition of K+ Current, % Inhibition at 10 μM [2]: 43%; Inhibition of Calcium Flux in IMR-32 Cells % Inhibition at 1 μM [1]: 42%; Inhibition of Calcium Flux in IMR-32 Cells % Inhibition at 10 μM [1]: 90%; Inhibition of Na+ Current, % Inhibition at 10 μM [3]: 5%; Dead mice (remark beside the protection count) (DBA/2 mice; [5]): (1 dead); Number of Mice Protected from Tonic Convulsions (DBA/2 mice; [5]): 3/4; Dead mice (remark beside the protection count) (DBA/2 mice; [6]): 2 (dead); Number of Mice Protected from Tonic Convulsions (DBA/2 mice; [6]): 3/3
3 | 3000 nM | 142 to 143 °C | 71% | 86% | CC(C)C[C@H](NS(=O)(=O)c1ccc(C(C)(C)C)cc1)C(=O)N[C@@H](Cc1ccc(OCc2ccccc2)cc1)C(=O)OC(C)(C)C [Example 36, [S-(R*,R*)]-3-(4-Benzyloxy-phenyl)-2(S)-[2(S)-(4-tert-butyl-benzenesulfonylamino)-4-methyl-pentanoylamino]-propionic acid tert-butyl ester] | 170 nM | Inhibition of K+ Current, % Inhibition at 10 μM [2]: 92%; Inhibition of Na+ Current, % Inhibition at 10 μM [3]: 91%
4 | 550 nM | 155 to 156 °C | 61% | 86% | CC(C)C[C@H](NC(=O)N1CCCCCC1)C(=O)N[C@@H](Cc1ccc(CCc2ccccc2)cc1)C(=O)NC(C)(C)C [Example 144, [S-(R*,R*)]-Azepane-1-carboxylic acid {1-[1-tert-butylcarbamoyl-2-(4-phenethyl-phenyl)-ethylcarbamoyl]-3-methyl-butyl}-amide] | – | –
5 | 250 nM | 180 to 181 °C | 48% | – | CC(C)C[C@H](NC(=O)N1CCCCCC1)C(=O)N[C@@H](Cc1ccc(CCC(C)(C)C)cc1)C(=O)NC(C)(C)C [Example 145, [S-(R*,R*)]-Azepane-1-carboxylic acid (1-{1-tert-butylcarbamoyl-2-[4-(3,3-dimethyl-butyl)-phenyl]-ethylcarbamoyl}-3-methyl-butyl)-amide] | – | –
6 | 220 nM | 165 °C | 51% | – | CC(C)C[C@H](NC(=O)N1CCCCCC1)C(=O)N[C@@H](Cc1ccc(CCC2CCCCC2)cc1)C(=O)NC(C)(C)C [Example 146, [S-(R*,R*)]-Azepane-1-carboxylic acid (1-{1-tert-butylcarbamoyl-2-[4-(2-cyclohexyl-ethyl)-phenyl]-ethylcarbamoyl}-3-methyl-butyl)-amide] | – | –
7 | 5100 nM | 154 to 156 °C | 25% | 71% | CC(C)C[C@H](NC(=O)N1CCCCCC1)C(=O)N[C@@H](Cc1ccc(CCc2ccccn2)cc1)C(=O)NC(C)(C)C [Example 147, [S-(R*,R*)]-Azepane-1-carboxylic acid (1-{1-tert-butylcarbamoyl-2-[4-(2-pyridin-2-yl-ethyl)-phenyl]-ethylcarbamoyl}-3-methyl-butyl)-amide] | – | –
8 | 970 nM | 101 to 102 °C | 30% | 68% | CC(C)C[C@H](NC(=O)N1CCCCCC1)C(=O)N[C@@H](Cc1ccc(CCC2(O)CCCCC2)cc1)C(=O)NC(C)(C)C [Example 148, [S-(R*,R*)]-Azepane-1-carboxylic acid [1-(1-tert-butylcarbamoyl-2-{4-[2-(1-hydroxy-cyclohexyl)-ethyl]-phenyl}-ethylcarbamoyl)-3-methyl-butyl]-amide] | – | –

Row | Compound | IC50 [4] | melting point | inhibition at 1 µM [1] | inhibition at 10 µM [1] | IC50 [1] | further results
9 | CC(C)C[C@H](NC(=O)N1CCCCCC1)C(=O)N[C@@H](Cc1ccc(OCc2ccccc2)cc1)C(=O)NC1CCN(Cc2ccccc2)C1 (stereo in doubt) [Example 183, Azepane-1-carboxylic acid {(S)-1-[(S)-2-(4-benzyloxy-phenyl)-1-[1-benzyl-(S)-pyrrolidin-3-ylcarbamoyl]-ethylcarbamoyl]-3-methyl-butyl}-amide] | 220 nM | – | – | – | 300 nM | responders at 30 mg/kg (DBA/2 mice; 0.25 h): 100%; Dead mice (remark beside the protection count) (DBA/2 mice; mouse, in vivo): dead
10 | CC(C)C[C@H](NC(=O)N1CCCCCC1)C(=O)N[C@@H](Cc1ccc(OCc2ccccc2)cc1)C(=O)NCCN1CCCCC1 [Example 171, [S-(R*,R*)]-Azepane-1-carboxylic acid {1-[2-(4-benzyloxy-phenyl)-1-(2-piperidin-1-yl-ethylcarbamoyl)-ethylcarbamoyl]-3-methyl-butyl}-amide] | 270 nM | – | 62% | – | 460 nM | responders at 30 mg/kg (DBA/2 mice; 0.75 h): 0%
11 | CC(C)CC(NC(=O)N1CCCCCC1)C(=O)NC(Cc1ccc(OCc2ccccc2)cc1)C(=O)NC(CO)C(C)C (stereo not drawn) [Example 253, Azepane-1-carboxylic acid {1-[2-(4-benzyloxy-phenyl)-1-(1-hydroxymethyl-2-methyl-propylcarbamoyl)-ethylcarbamoyl]-3-methyl-butyl}-amide] | – | – | 60% | 93% | 1100 nM | Inhibition of K+ Current, % Inhibition at 10 μM [2]: 62%; Inhibition of Na+ Current, % Inhibition at 10 μM [3]: 5%; responders at 30 mg/kg (DBA/2 mice; 0.25 h): 0%
